Test results reported in PubChem BioAssay (NCI).
Several values for one entry are separate records, joined by “and”; a condition that tells them apart may be missing. Identical values can stand only once.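 Protocol summary: plate cells (96-well), add compound at 5 concentrations, incubate 48 h, interpolate endpoints linearly. GI50: concentration for 50% inhibition of growth. Definition used: TGI = concentration required for complete inhibition of growth.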

What was measured:
Assay in all cases: DTP human tumour cell line panel, 48 h; in the data active means GI50 below about 0.43 µM; inactive means the rest
[1] = tested on: A549 NSCLC
[2] = tested on: M14 melanoma
[3] = tested on: MALME-3M melanoma
[4] = tested on: MOLT-4 leukemia
[5] = tested on: SN12C renal
[6] = tested on: 786-0 renal
[7] = tested on: K-562 leukemia
[8] = tested on: U251 CNS
[9] = tested on: CAKI-1 renal
[10] = tested on: SNB-75 CNS
[11] = tested on: BT-549 breast
[12] = tested on: OVCAR-5 ovarian
[13] = tested on: SF-295 CNS
[14] = tested on: OVCAR-3 ovarian
[15] = tested on: MDA-N
[16] = tested on: IGROV1 ovarian
[17] = tested on: NCI-H226 lung
[18] = tested on: OVCAR-8 ovarian
[19] = tested on: DU-145 prostate
[20] = tested on: RXF 393 renal
[21] = tested on: EKVX NSCLC
[22] = tested on: RPMI-8226 leukemia
[23] = tested on: SK-MEL-28 melanoma
[24] = tested on: TK-10 renal
[25] = tested on: SK-MEL-5 melanoma
[26] = tested on: PC-3 prostate
[27] = tested on: UO-31 renal
[28] = tested on: KM12 colon
[29] = tested on: HL-60(TB) leukemia
[30] = tested on: HCC-2998 colon
[31] = tested on: LOX IMVI melanoma
[32] = tested on: MDA-MB-435
[33] = tested on: NCI-H460 lung
[34] = tested on: HT29 colon
[35] = tested on: ACHN renal
[36] = tested on: COLO 205 colon
[37] = tested on: NCI-H23 lung
[38] = tested on: HOP-62 NSCLC
[39] = tested on: UACC-257 melanoma
[40] = tested on: SW-620 colon
[41] = tested on: MDA-MB-231 breast
[42] = tested on: UACC-62 melanoma
[43] = tested on: NCI/ADR-RES ovarian
[44] = tested on: CCRF-CEM leukemia
[45] = tested on: HCT-116 colon
[46] = tested on: SK-MEL-2 melanoma
[47] = tested on: HS 578T breast
[48] = tested on: MCF7 breast
[49] = tested on: SK-OV-3 ovarian
[50] = tested on: NCI-H522 lung
[51] = tested on: HCT-15 colon
[52] = tested on: OVCAR-4 ovarian
[53] = tested on: HOP-92 NSCLC
[54] = tested on: SNB-19 CNS
[55] = tested on: SF-268 CNS
[56] = tested on: SR leukemia
[57] = tested on: SF-539 CNS
[58] = tested on: A498 renal

C=CCN(C(=O)OC(C)(C)C)C1=CC2C(C)=CN(S(=O)(=O)c3ccccc3)C2C(OCc2ccccc2)=C1 (stereo not given)
> 100 µM: TGI [1] | TGI [2] | TGI [3] | TGI [4] | TGI [5] | TGI [6] | TGI [7] | TGI [8] | TGI [9] | TGI [10] | TGI [11] | TGI [12] | TGI [13] | TGI [14] | TGI [15] | TGI [16] | TGI [17] | TGI [18] | TGI [19] | TGI [20] | TGI [21] | TGI [22] | TGI [23] | TGI [24] | TGI [25] | TGI [26] | TGI [27] | TGI [28] | TGI [29] | TGI [30] | TGI [31] | TGI [32] | TGI [33] | TGI [34] | TGI [35] | TGI [36] | TGI [37] | TGI [38] | TGI [39] | TGI [40] | TGI [41] | TGI [42] | TGI [43] | TGI [44] | TGI [45] | TGI [46] | TGI [47] | TGI [48] | TGI [49] | TGI [50] | TGI [51] | TGI [52]

CCc1c2c(nc3ccc(O)cc13)-c1cc3c(c(=O)n1C2)COC(=O)[C@]3(O)CC
0.0503 µM: TGI [13]
0.0286 µM and 0.0985 µM: TGI [9]
> 12.7 µM: TGI [54]
0.488 µM and 0.156 µM: TGI [2]
4.56 µM: TGI [12]
0.526 µM: TGI [34]
> 100 µM: TGI [5] | TGI [7] | TGI [15] | TGI [21] | TGI [26] | TGI [40] | TGI [41] | TGI [44] | TGI [47] | TGI [51]
0.885 µM and 0.317 µM: TGI [50]
active: GI50 [1] < 0.001 µM | GI50 [11] 0.0103 µM | GI50 [12] 0.246 µM | GI50 [14] 0.0649 µM | GI50 [53] < 0.001 µM | GI50 [22] < 0.001 µM | GI50 [23] 0.246 µM | GI50 [26] 0.0857 µM | GI50 [28] 0.0784 µM | GI50 [36] 0.0711 µM | GI50 [39] 0.0838 µM | GI50 [49] < 0.001 µM | GI50 [51] 0.206 µM | GI50 [52] 0.279 µM
0.292 µM and 1.57 µM: TGI [32]
0.147 µM and 0.536 µM: TGI [33]
12.2 µM: TGI [36]
8.34 µM: TGI [1]
3.68 µM: TGI [55]
3.1 µM: TGI [19]
0.0322 µM and 0.123 µM: TGI [35]
0.0152 µM and 0.115 µM: TGI [27]
> 19.7 µM: TGI [23]
0.0109 µM and 0.0892 µM: TGI [17]
0.282 µM: TGI [46]
2.64 µM: TGI [28]
0.293 µM: TGI [11]
0.351 µM: TGI [10]
2.55 µM and 1.67 µM: TGI [14]
> 36.1 µM: TGI [45]
0.342 µM and 0.792 µM: TGI [49]
inactive: GI50 [15] 1.92 µM | GI50 [21] 0.545 µM | GI50 [24] 0.606 µM | GI50 [41] 0.524 µM | GI50 [47] 4.12 µM
6.45 µM: TGI [43]

Cc1ccc(N(C)S(=O)(=O)c2ccc([N+](=O)[O-])cc2)cc1
> 100 µM: TGI [1] | TGI [2] | TGI [3] | TGI [4] | TGI [5] | TGI [6] | TGI [7] | TGI [8] | TGI [9] | TGI [10] | TGI [11] | TGI [12] | TGI [13] | TGI [14] | TGI [15] | TGI [16] | TGI [17] | TGI [18] | TGI [19] | TGI [20] | TGI [21] | TGI [22] | TGI [23] | TGI [24] | TGI [56] | TGI [26] | TGI [27] | TGI [28] | TGI [57] | TGI [29] | TGI [30] | TGI [31] | TGI [32] | TGI [33] | TGI [34] | TGI [35] | TGI [36] | TGI [38] | TGI [39] | TGI [40] | TGI [41] | TGI [54] | TGI [42] | TGI [43] | TGI [55] | TGI [44] | TGI [45] | TGI [46] | TGI [47] | TGI [48] | TGI [49] | TGI [50] | TGI [51] | TGI [52]

CC(=O)OC1C[C@@H](C)C2(C[C@H](O)c3ccoc3)C(=O)OC[C@]13C2CCC(O)C31CO1 (stereo not given in full)
> 100 µM: TGI [1] | TGI [2] | TGI [3] | TGI [4] | TGI [5] | TGI [6] | TGI [7] | TGI [8] | TGI [9] | TGI [10] | TGI [11] | TGI [12] | TGI [13] | TGI [14] | TGI [15] | TGI [16] | TGI [17] | TGI [53] | TGI [18] | TGI [19] | TGI [20] | TGI [22] | TGI [23] | TGI [24] | TGI [25] | TGI [56] | TGI [26] | TGI [27] | TGI [28] | TGI [57] | TGI [30] | TGI [31] | TGI [32] | TGI [33] | TGI [34] | TGI [35] | TGI [36] | TGI [37] | TGI [38] | TGI [39] | TGI [41] | TGI [54] | TGI [42] | TGI [43] | TGI [58] | TGI [55] | TGI [44] | TGI [45] | TGI [46] | TGI [47] | TGI [48] | TGI [50] | TGI [51] | TGI [52]

NC(CSC(=O)c1ccccc1)C(=O)O (stereo not given)
> 100 µM: TGI [1] | TGI [2] | TGI [3] | TGI [4] | TGI [5] | TGI [6] | TGI [8] | TGI [9] | TGI [10] | TGI [11] | TGI [12] | TGI [13] | TGI [14] | TGI [15] | TGI [16] | TGI [17] | TGI [53] | TGI [18] | TGI [19] | TGI [20] | TGI [21] | TGI [22] | TGI [23] | TGI [24] | TGI [25] | TGI [56] | TGI [26] | TGI [27] | TGI [28] | TGI [57] | TGI [29] | TGI [31] | TGI [32] | TGI [33] | TGI [34] | TGI [35] | TGI [36] | TGI [37] | TGI [38] | TGI [39] | TGI [40] | TGI [41] | TGI [54] | TGI [42] | TGI [43] | TGI [58] | TGI [55] | TGI [44] | TGI [45] | TGI [46] | TGI [47] | TGI [48] | TGI [49] | TGI [50] | TGI [51] | TGI [52]
